US12246040B2, “Human homogeneous amniotic fluid stem cell lines and uses thereof” (priority 2018, dated 2025)

Tests used:
Assay type in all cases: cell-based
[1] = system: homogeneous human amniotic fluid clonal stem cells; test: In vitro osteocyte differentiation with pharmacological agent screening; details: results not shown
[2] = system: homogeneous human amniotic fluid clonal stem cells; test: In vitro chondrocyte differentiation with pharmacological agent screening; details: 21 days; results not shown
[3] = system: homogeneous human amniotic fluid clonal stem cells; test: In vitro neural differentiation with pharmacological agent screening; details: neural induction 21 days; results not shown

## O=S(=O)([O-])[O-].[Mg+2] [MgSO4]
[1]
  effect on bone development / osteogenic differentiation: minimal or no effect
[2]
  effect on chondrogenic differentiation: minimal or no effect
[3]
  effect on neural / neurological development: minimal or no effect

## CCCC(CCC)C(=O)O [VPA, valproic acid]
[1]
  effect on bone development / osteogenic differentiation: does not affect
[2]
  effect on chondrogenic differentiation: does not affect
[3]
  effect on neural / neurological development: decreases
